# Biological target: T1, A2 Adenosine receptor (Rattus norvegicus, UniProt P30543)
# T1 construct: membrane preparations derived from the rat phaeochromocytoma cell line PC 12; host or cells: PC 12 rat phaeochromocytoma cells, membranes
# Assay: A2 Adenosine receptor affinity test: displacement of [3H]-NECA from PC 12 cell membrane preparations
# Format: binding
# Procedure: The membrane preparation is obtained as follows: Frozen pellets of PC12 cells are washed twice with ice cold, buffered, physiological saline and the cells recovered by centrifugation (1500 G) at 3° C. The separated cells are then suspended in hypotonic solution (distilled water), allowed to stand on ice for 30 minutes and are then carefully homogenized using a standard high-speed homogeniser with periodic ice-cooling to obtain a fine suspension. […] The mixture is then incubated at 37° C. After 20 minutes, the reaction is terminated by dilution with ice-cold buffer and transfer onto ice. The material obtained containing the cell membranes is recovered by centrifugation and washed by resuspension in buffer and recentrifugation. The pellet produced is then resuspended in ice-cold buffer using a hand-driven homogenizer. The resultant membrane suspension is frozen and stored under liquid nitrogen until required.
# After incubation, the samples are rapidly filtered over glass-fibre mats and the filter mats are washed to remove non-receptor-bound radioligand. Receptor-bound radioligand entrapped on the filter mats is then determined by liquid scintillation counting. Filtration and washing are carried out using a conventional vacuum filtration cell harvester. The specific binding (defined as the difference between the total binding and the non-specific binding) in the presence of the particular test compound is determined and compared with the control value.
# [1] = read-out: displacement of control binding
# T1 sequence (P30543 whole entry): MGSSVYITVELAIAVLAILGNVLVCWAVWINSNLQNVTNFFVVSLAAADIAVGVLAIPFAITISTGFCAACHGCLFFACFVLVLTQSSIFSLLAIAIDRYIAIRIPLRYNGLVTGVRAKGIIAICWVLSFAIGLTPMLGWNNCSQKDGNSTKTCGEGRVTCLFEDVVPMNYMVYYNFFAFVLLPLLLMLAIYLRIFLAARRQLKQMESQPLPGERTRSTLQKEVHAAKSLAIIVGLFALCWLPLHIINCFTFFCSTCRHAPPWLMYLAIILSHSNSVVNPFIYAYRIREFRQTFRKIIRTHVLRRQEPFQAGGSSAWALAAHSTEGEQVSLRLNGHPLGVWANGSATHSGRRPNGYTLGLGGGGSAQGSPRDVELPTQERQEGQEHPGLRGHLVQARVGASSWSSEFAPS
smiles,measurement,setting,value
"COc1ccc(CCNc2nc(N)c3nc(-c4ccco4)oc3n2)cc1 [Example 1, 7-amino-2-(2-furyl)-5-[2-(4-methoxyphenyl)ethyl]asino-oxazolo[5,4-d]pyrimidine]",IC50,"[3H]-NECA displacement, PC 12 membranes, inferred from displacement at 10^-5 M and 10^-7 M, read-out: pIC50 (indicated by the % displacement values) (converted)",< 100 nM
same,inhibition at 0.1 µM,[1],59%
same,inhibition at 10 µM,[1],78%

# Reference: patent US5500428A, “Furyl-substituted purines and adenosine antagonists” (Imperial Chemical Industries PLC, priority 1991, dated 1996)
